Where a name gives a salt, the structure may show the parent alone.
Test system: LPS-induced pulmonary neutrophilia in rats
Test: In Vivo Assay 1: LPS induced pulmonary neutrophilia in rats, intratracheal administration
Parameters: species or system rat
Conditions: rats; for mean inhibition of LPS-induced pulmonary neutrophilia: i.t. aqueous solution, about 2 hours prior to LPS; for estimated ED50 for inhibition of LPS-induced pulmonary neutrophilia: i.t., micronised, aqueous solution in 0.2% Tween 80 in PBS, about 2 hours prior to LPS challenge
Description: This assay is an animal model of acute inflammation in the lung—specifically neutrophilia induced by lipopolysaccharide (LPS)—and allows the study of putative inhibition of such neutrophilia (anti-inflammatory effect) by an intratracheally (i.t.) administered PDE4 inhibitor (“drug”). The PDE4 inhibitors are suitably in dry powder, aqueous solution or aqueous suspension form. I.t. administration is one model of inhaled administration, allowing topical delivery to the lung.
Animals: Male CD (Sprague Dawley Derived) rats supplied by Charles River, United Kingdom are housed in groups of 5 rats per cage, acclimatised after delivery for at least 7 days with bedding/nesting material regularly changed, fed on SDS diet R1 pelleted food given ad lib, and supplied with daily-changed pasteurised animal grade drinking water.
Device for dry powder administration: For these studies, a Penn Century DP-4 dry powder intratracheal (i.t.) delivery device (insufflator) is used for administration of a dry powder blend of vehicle (inhalation grade lactose) and the PDE4 inhibitor compound or salt of the invention (“drug”). Each device is numbered and the sample loading chamber is unscrewed from the main device and weighed. The i.t. delivery needle is also weighed. The drug+lactose blend or inhalation grade lactose (vehicle control) is then added to the sample chamber and this is then re-weighed. The sample chamber is fitted back on to the main device to prevent any drug being lost. This procedure is repeated for all of the Penn century devices to be used in the study (one separate device for each animal). After dosing to the animals, the sample chambers and needles are re-weighed in order to determine the amount of sample that was expelled from the device.
Device for aqueous solution administration: A blunt dosing needle, whose forward end is slightly angled to the needle axis, is used, with a flexible plastic portex canula inserted into the needle. The portex cannula is inserted into the lumen of the blunt stainless steel dosing needle and this is carefully inserted into the back of the animal's throat and into the trachea via the larynx. A known volume (200 microlitres) of the vehicle (0.2% Tween 80™ in saline) or of the solution (or suspension) drug composition is administered into the trachea using a plastic syringe that is attached to the portex cannula and dosing needle. A new internal cannula is used for each different drug group. After dosing, the needle is removed from the trachea and the animals are removed from the table and continually observed until they recover from the effects of anaesthesia. The animals are then returned to the holding cages and given free access to food and water, and are observed and any unusual behavioural changes noted. (Aqueous suspensions can be handled generally similarly.)
Drugs and Materials: Lipopolysaccharide (LPS) (Serotype:0127:B8, e.g. from Sigma, UK; e.g. L3129 prepared by phenol extraction) is dissolved in phosphate-buffered saline (PBS).
For dry powder, aqueous solution or aqueous suspension administration, PDE4 inhibitors are preferably used in size-reduced (e.g. micronised) form, for example according to the Micronisation Example(s) disclosed herein.
For dry powder administration of the drug, the PDE4 inhibitor compound or salt of the invention (drug) is administered as a dry powder blended with inhalation-grade (respiratory-grade) lactose, i.e. as a dry powder composition. The target quantity of dry powder composition administered i.t. to each animal is 2 mg. This remains constant throughout the studies. To achieve different doses, blends of the drug dry powder and lactose, containing different concentrations of the PDE4 inhibitor compound or salt of the invention (drug), are prepared. […]

With CCc1nc2c(cnn2CC)c(NC2CCOCC2)c1CNC(=O)c1ccc(NC(=O)CCCCCCCN(C)CCO)cc1 [Example 1A1, N-{[1,6-Diethyl-4-(tetrahydro-2H-pyran-4-ylamino)-1H-pyrazolo[3,4-b]pyridin-5-yl]methyl}-4-({8-[(2-hydroxyethyl)(methyl)amino]octanoyl}amino)benzamide dihydrochloride] the “mean inhibition of LPS-induced pulmonary neutrophilia” value (“mean inhibition” for short) (about 10 micrograms/kg, dihydrochloride) was “about 33%”, the “mean inhibition” value (about 30 micrograms/kg, dihydrochloride) was “about 56%” and the “mean inhibition” value (about 100 micrograms/kg, dihydrochloride) was “about 76%”. The “mean inhibition” value (about 300 micrograms/kg) was “about 74%” and the “estimated ED50 for inhibition of LPS-induced pulmonary neutrophilia” value (dihydrochloride) was “approximately 12.3 micrograms/kg body weight”.
In the case of CCc1nc2c(cnn2CC)c(NC2CCOCC2)c1CNC(=O)c1ccc(NC(=O)CCCCCCCN(C)CCO)cc1 [Example 1B, N-{[1,6-diethyl-4-(tetrahydro-2H-pyran-4-ylamino)-1H-pyrazolo[3,4-b]pyridin-5-yl]methyl}-4-({8-[(2-hydroxyethyl)(methyl)amino]octanoyl}amino)benzamide], the “mean inhibition” value (about 10 micrograms/kg) is reported as “about 29%”, the “mean inhibition” value (about 30 micrograms/kg) is reported as “about 75%” and the “mean inhibition” value (about 100 micrograms/kg) is reported as “about 59%”. For the same molecule, the “estimated ED50 for inhibition of LPS-induced pulmonary neutrophilia” value was “approximately 10.1 micrograms/kg body weight”.
